Measured values from ChEMBL document CHEMBL3271954, “Antitumor agents. 25. Synthesis and antitumor activity of uracil and thymine alpha-methylene-gamma-lactones and related derivatives” (1977).
Activity calls are given as the source filed them. The rule behind the calls is not given here.

Tests used:
Type in all cases: functional
Conditions in all cases: for T/C: route intraperitoneal
P388 = experiment: Antitumor activity against mouse P388 cells allografted in DBA/2 mouse at 25 mg/kg/day, ip administered for 2 weeks relative to control
W256 = experiment: Antitumor activity against rat Walker 256 cells allografted in Sprague-Dawley rat at 2.5 mg/kg/day, ip relative to control
B16 = experiment: Antitumor activity against mouse B16 cells allografted in C57Bl/6 mouse at 25 mg/kg/day, ip administered for 2 weeks relative to control

O=c1cc[nH]c(=O)[nH]1
Activity (P388): inactive
Activity (W256): inactive
Activity (B16): inactive

C=C1C(=O)O[C@H]2/C=C(/C)[C@H](CO)C/C=C(\C)C[C@@H](OC(=O)/C(=C/CO)CO)[C@@H]12 [EUPAFORMOSANIN]
T/C (P388): 147%
T/C (W256): 471%
T/C (B16): 113%

C=C1CC(C)(Cn2ccc(=O)[nH]c2=O)OC1=O (configuration not stated)
T/C (P388): 115%
T/C (W256): 131%
T/C (B16): 111%

N[C@@H](Cc1ccc(N(CCCl)CCCl)cc1)C(=O)O [MELPHALAN]
T/C (W256): 317%

C=C1CC(C)(Cn2cc(COC(=O)c3cc(OC)c(OC)c(OC)c3)c(=O)[nH]c2=O)OC1=O (configuration not stated)
T/C (P388): 142%
T/C (W256): 209%
T/C (B16): 129%

O=c1[nH]cc(F)c(=O)[nH]1 [FLUOROURACIL]
T/C (P388): 186%
T/C (B16): 164%

C=C1CC(C)(Cn2cc(C)c(=O)[nH]c2=O)OC1=O (configuration not stated)
T/C (P388): 127%
T/C (W256): 127%
T/C (B16): 123%

C=C1C(=O)O[C@H]2[C@H]1[C@H](OC(=O)/C(C)=C/CO)C/C(C)=C/CC[C@@]1(CO)O[C@H]21
T/C (P388): 147%
T/C (W256): 330%
T/C (B16): 111%

C=C1CC(C)(Cn2cc(COC(=O)/C=C/c3ccccc3)c(=O)[nH]c2=O)OC1=O (configuration not stated)
T/C (P388): 130%
T/C (W256): 211%
T/C (B16): 141%

Cc1c[nH]c(=O)[nH]c1=O
Activity (P388): inactive
Activity (W256): inactive
Activity (B16): inactive
